Assay results reported in patent publication US20070128217A1 (priority 2003, published 2007).

Legend:
[1] = system: antibodies in sera from SARS patients (sera 1a, 1b, 2, 6, 37, 62, London, SARS-yellow, SARS-green); type: binding, human; parameters: Binding of serum 6 to linear peptides of protein X1 of SARS-CoV Urbani / Binding of serum 37 to linear peptides of protein X1 of SARS-CoV Urbani / Binding of serum 6 to looped/cyclic peptide (PEPSCAN-ELISA) / Binding of serum 37 to looped/cyclic peptide (PEPSCAN-ELISA) / Binding of serum 37 to looped/cyclic peptides of protein X1 of SARS-CoV Urbani / Binding of serum 6 to linear peptides of protein X2 / Binding of serum 37 to linear peptides of protein X2 / Binding of serum 37 to looped/cyclic peptides of protein X2 of SARS-CoV Urbani / Binding of serum 6 to linear peptides of protein M of SARS-CoV Urbani / Binding of serum 37 to linear peptides of protein M of SARS-CoV Urbani / Binding of serum 6 to looped/cyclic peptides of protein M of SARS-CoV Urbani / Binding of serum 37 to looped/cyclic peptides of protein M of SARS-CoV Urbani / Binding of serum 6 to linear peptides of protein X3 of SARS-CoV Urbani / Binding of serum 37 to linear peptides of protein X3 of SARS-CoV Urbani / Binding of serum 37 to looped/cyclic peptides of protein X3 of SARS-CoV Urbani / Binding of serum 6 to linear peptides of protein X4 of SARS-CoV Urbani / Binding of serum 37 to linear peptides of protein X4 of SARS-CoV Urbani / Binding of serum 37 to looped/cyclic peptides of protein X4 of SARS-CoV Urbani / Binding of serum 6 to linear peptides of protein X5 of SARS-CoV Urbani / Binding of serum 37 to linear peptides of protein X5 of SARS-CoV Urbani / Binding of serum 37 to looped/cyclic peptides of protein X5 of SARS-CoV Urbani / Binding of serum 6 to linear peptides of protein N of SARS-CoV Urbani / Binding of serum 37 to linear peptides of protein N of SARS-CoV Urbani / Binding of serum 6 to linear peptide (PEPSCAN-ELISA) / Binding of serum 1a to looped/cyclic peptides of protein N of SARS-CoV Urbani / Binding of serum 1b to looped/cyclic peptides of protein N of SARS-CoV Urbani / Binding of serum 2 to looped/cyclic peptides of protein N of SARS-CoV Urbani / Binding of serum 6 to looped/cyclic peptides of protein N of SARS-CoV Urbani / Binding of serum 37 to looped/cyclic peptides of protein N of SARS-CoV Urbani / Binding of serum 62 to looped/cyclic peptides of protein N of SARS-CoV Urbani / Binding of serum London to looped/cyclic peptides of protein N of SARS-CoV Urbani / Binding of serum SARS-green to looped/cyclic peptides of protein N of SARS-CoV Urbani: unit not given here
[2] = system: control sera (pooled serum of ten healthy LUMC hospital workers; commercial negative donor pooled serum from the Dutch bloodbank); type: binding, human; parameters: Binding of Control serum LUMC to linear peptides / Binding of Control serum Blood-bank to linear peptides / Binding of Control serum LUMC to looped peptides / Binding of Control Serum Blood-Bank to Looped peptides / Binding of Control serum LUMC to linear peptides of the protein M of SARS-CoV Urbani / Binding of Control serum Blood-bank to linear peptides of the protein M of SARS-CoV Urbani / Binding of Control serum LUMC to looped peptides of the protein M of SARS-CoV Urbani / Binding of Control Serum Blood-Bank to Looped peptides of the protein M of SARS-CoV Urbani: unit not given here
[3] = system: rabbit serum obtained by immunizing a rabbit with the SARS-CoV strain Frankfurt 1; type: binding; parameters: Binding of a rabbit serum to linear peptides / Binding of a rabbit serum to looped peptides / Rabbit serum linear peptides / Rabbit serum looped peptides / Binding of a rabbit serum to linear peptides of protein N of SARS-CoV Urbani (Rabbit serum linear peptides) / Binding of a rabbit serum to looped/cyclic peptides of protein N of SARS-CoV Urbani (Rabbit serum looped peptides): unit not given here
[4] = system: recombinant human anti-SARS-CoV antibody 03-018; type: binding; parameters: Binding of antibody 03-018 to linear peptides of the N protein of SARS-CoV Urbani / Binding of antibody 03-018 to looped/cyclic peptides of the N protein of SARS-CoV Urbani: unit not given here

VRGGDGKMKELSPRW
Binding of serum 1a to linear peptides of protein N of SARS-CoV Urbani [1]: 0.2 | Binding of serum 1a to looped/cyclic peptides of protein N of SARS-CoV Urbani [1]: 0.3 | Binding of serum 1b to linear peptides of protein N of SARS-CoV Urbani [1]: 0.1 | Binding of serum 1b to looped/cyclic peptides of protein N of SARS-CoV Urbani [1]: 0.2 | Binding of serum 2 to linear peptides of protein N of SARS-CoV Urbani [1]: 0.2 | Binding of serum 2 to looped/cyclic peptides of protein N of SARS-CoV Urbani [1]: 0.5 | Binding of serum 6 to linear peptides of protein N of SARS-CoV Urbani [1]: 0.2 | Binding of serum 6 to looped/cyclic peptides of protein N of SARS-CoV Urbani [1]: 0.2 | Binding of serum 37 to linear peptides of protein N of SARS-CoV Urbani [1]: 0.6 | Binding of serum 37 to looped/cyclic peptides of protein N of SARS-CoV Urbani [1]: 0.6 | Binding of serum 62 to linear peptides of protein N of SARS-CoV Urbani [1]: 0.6 | Binding of serum 62 to looped/cyclic peptides of protein N of SARS-CoV Urbani [1]: 0.6 | Binding of serum London to linear peptides of protein N of SARS-CoV Urbani [1]: 0.4 | Binding of serum London to looped/cyclic peptides of protein N of SARS-CoV Urbani [1]: 0.5 | Binding of serum SARS-green to linear peptides of protein N of SARS-CoV Urbani [1]: 0.4 | Binding of serum SARS-green to looped/cyclic peptides of protein N of SARS-CoV Urbani [1]: 0.1 | Binding of serum SARS-yellow to linear peptides of protein N of SARS-CoV Urbani [1]: 0.7 | Binding of serum SARS-yellow to looped/cyclic peptides of protein N of SARS-CoV Urbani [1]: 0.3 | Binding of Control Serum Blood-Bank to Looped peptides [2]: 0.7 | Binding of Control serum Blood-bank to linear peptides [2]: 0.6 | Binding of Control serum LUMC to linear peptides [2]: 0.8 | Binding of Control serum LUMC to looped peptides [2]: 0.7 | Binding of a rabbit serum to linear peptides of protein N of SARS-CoV Urbani (Rabbit serum linear peptides) [3]: 0.2 | Binding of a rabbit serum to looped/cyclic peptides of protein N of SARS-CoV Urbani (Rabbit serum looped peptides) [3]: 0.4 | Binding of antibody 03-018 to linear peptides of the N protein of SARS-CoV Urbani [4]: 0.1 | Binding of antibody 03-018 to looped/cyclic peptides of the N protein of SARS-CoV Urbani [4]: 0.2

VTKKSAAEASKKPRQ
Binding of serum 1a to looped/cyclic peptides of protein N of SARS-CoV Urbani [1]: 0.3 | Binding of serum 1b to looped/cyclic peptides of protein N of SARS-CoV Urbani [1]: 0.2 | Binding of serum 2 to looped/cyclic peptides of protein N of SARS-CoV Urbani [1]: 0.6 | Binding of serum 6 to looped/cyclic peptides of protein N of SARS-CoV Urbani [1]: 0.3 | Binding of serum 37 to looped/cyclic peptides of protein N of SARS-CoV Urbani [1]: 0.6 | Binding of serum 62 to looped/cyclic peptides of protein N of SARS-CoV Urbani [1]: 0.4 | Binding of serum London to looped/cyclic peptides of protein N of SARS-CoV Urbani [1]: 0.5 | Binding of serum SARS-green to looped/cyclic peptides of protein N of SARS-CoV Urbani [1]: 0.6 | Binding of serum SARS-yellow to looped/cyclic peptides of protein N of SARS-CoV Urbani [1]: 0.7 | Recognition of the peptide by sera of SARS-CoV infected individuals, and form (linear, looped/cyclic) in which it is recognized [1]: recognized in linear form | Binding of Control Serum Blood-Bank to Looped peptides [2]: 0.6 | Binding of Control serum Blood-bank to linear peptides [2]: 0.9 | Binding of Control serum LUMC to linear peptides [2]: 0.9 | Binding of Control serum LUMC to looped peptides [2]: 0.7 | Binding of a rabbit serum to linear peptides of protein N of SARS-CoV Urbani (Rabbit serum linear peptides) [3]: 0.1 | Binding of a rabbit serum to looped/cyclic peptides of protein N of SARS-CoV Urbani (Rabbit serum looped peptides) [3]: 0.6 | Binding of antibody 03-018 to linear peptides of the N protein of SARS-CoV Urbani [4]: 0.1 | Binding of antibody 03-018 to looped/cyclic peptides of the N protein of SARS-CoV Urbani [4]: 0.2

WYFYYLGTGPEASLP
Binding of serum 1a to linear peptides of protein N of SARS-CoV Urbani [1]: 0.3 | Binding of serum 1a to looped/cyclic peptides of protein N of SARS-CoV Urbani [1]: 0.4 | Binding of serum 1b to linear peptides of protein N of SARS-CoV Urbani [1]: 0.2 | Binding of serum 1b to looped/cyclic peptides of protein N of SARS-CoV Urbani [1]: 0.3 | Binding of serum 2 to linear peptides of protein N of SARS-CoV Urbani [1]: 0.3 | Binding of serum 2 to looped/cyclic peptides of protein N of SARS-CoV Urbani [1]: 0.4 | Binding of serum 6 to linear peptides of protein N of SARS-CoV Urbani [1]: 0.2 | Binding of serum 6 to looped/cyclic peptides of protein N of SARS-CoV Urbani [1]: 0.3 | Binding of serum 37 to linear peptides of protein N of SARS-CoV Urbani [1]: 0.9 | Binding of serum 37 to looped/cyclic peptides of protein N of SARS-CoV Urbani [1]: 0.7 | Binding of serum 62 to linear peptides of protein N of SARS-CoV Urbani [1]: 0.8 | Binding of serum 62 to looped/cyclic peptides of protein N of SARS-CoV Urbani [1]: 0.5 | Binding of serum London to linear peptides of protein N of SARS-CoV Urbani [1]: 0.5 | Binding of serum London to looped/cyclic peptides of protein N of SARS-CoV Urbani [1]: 0.4 | Binding of serum SARS-green to linear peptides of protein N of SARS-CoV Urbani [1]: 0.3 | Binding of serum SARS-green to looped/cyclic peptides of protein N of SARS-CoV Urbani [1]: 0.4 | Binding of serum SARS-yellow to linear peptides of protein N of SARS-CoV Urbani [1]: 0.7 | Binding of serum SARS-yellow to looped/cyclic peptides of protein N of SARS-CoV Urbani [1]: 0.5 | Binding of Control Serum Blood-Bank to Looped peptides [2]: 0.6 | Binding of Control serum Blood-bank to linear peptides [2]: 0.7 | Binding of Control serum LUMC to linear peptides [2]: 0.6 | Binding of Control serum LUMC to looped peptides [2]: 0.6 | Binding of a rabbit serum to linear peptides of protein N of SARS-CoV Urbani (Rabbit serum linear peptides) [3]: 0.1 | Binding of a rabbit serum to looped/cyclic peptides of protein N of SARS-CoV Urbani (Rabbit serum looped peptides) [3]: 0.3 | Binding of antibody 03-018 to linear peptides of the N protein of SARS-CoV Urbani [4]: 0.1 | Binding of antibody 03-018 to looped/cyclic peptides of the N protein of SARS-CoV Urbani [4]: 0.2

YKTFPPTEPKKDKKK
Binding of serum 1a to linear peptides of protein N of SARS-CoV Urbani [1]: 0.2 | Binding of serum 1a to looped/cyclic peptides of protein N of SARS-CoV Urbani [1]: 0.2 | Binding of serum 1b to linear peptides of protein N of SARS-CoV Urbani [1]: 0.1 | Binding of serum 1b to looped/cyclic peptides of protein N of SARS-CoV Urbani [1]: 0.1 | Binding of serum 2 to linear peptides of protein N of SARS-CoV Urbani [1]: 0.5 | Binding of serum 2 to looped/cyclic peptides of protein N of SARS-CoV Urbani [1]: 0.1 | Binding of serum 6 to linear peptides of protein N of SARS-CoV Urbani [1]: 0.2 | Binding of serum 6 to looped/cyclic peptides of protein N of SARS-CoV Urbani [1]: 0.0 | Binding of serum 37 to linear peptides of protein N of SARS-CoV Urbani [1]: 0.7 | Binding of serum 37 to looped/cyclic peptides of protein N of SARS-CoV Urbani [1]: 0.4 | Binding of serum 62 to linear peptides of protein N of SARS-CoV Urbani [1]: 0.7 | Binding of serum 62 to looped/cyclic peptides of protein N of SARS-CoV Urbani [1]: 0.2 | Binding of serum London to linear peptides of protein N of SARS-CoV Urbani [1]: 0.5 | Binding of serum London to looped/cyclic peptides of protein N of SARS-CoV Urbani [1]: 0.3 | Binding of serum SARS-green to linear peptides of protein N of SARS-CoV Urbani [1]: 0.2 | Binding of serum SARS-green to looped/cyclic peptides of protein N of SARS-CoV Urbani [1]: 0.0 | Binding of serum SARS-yellow to linear peptides of protein N of SARS-CoV Urbani [1]: 0.8 | Binding of serum SARS-yellow to looped/cyclic peptides of protein N of SARS-CoV Urbani [1]: 0.2 | Control Serum Blood-Bank Looped peptides [2]: 0.3 | Control serum Blood-bank linear peptides [2]: 0.7 | Control serum LUMC linear peptides [2]: 0.6 | Control serum LUMC looped peptides [2]: 0.3 | Binding of a rabbit serum to linear peptides of protein N of SARS-CoV Urbani (Rabbit serum linear peptides) [3]: 0.2 | Binding of a rabbit serum to looped/cyclic peptides of protein N of SARS-CoV Urbani (Rabbit serum looped peptides) [3]: 0.2 | Binding of antibody 03-018 to linear peptides of the N protein of SARS-CoV Urbani [4]: 0.1 | Binding of antibody 03-018 to looped/cyclic peptides of the N protein of SARS-CoV Urbani [4]: 0.2
